{
  "source": "patent US20180193273A1",
  "about": "“PHARMACEUTICAL COMPOSITION COMPRISING AMLODIPINE AND DEXTROMETHORPHAN” (TSH BIOPHARM CORPORATION LTD., priority 2015, published 2018)",
  "key": {"[1]": {"experiment": "Different excipients: potency and impurity of vial samples A1 to A25 after 60° C./75% RH for 2 weeks (HPLC)", "type": "physicochemical", "settings": "glass vial sample"}, "[2]": {"experiment": "Compatibility study: drug potency and total impurity test of vial powder mixes after storage at 60° C./75% RH for 2 weeks (HPLC)", "type": "physicochemical", "settings": "glass vial powder mix"}},
  "data": [
    {"smiles": "CCOC(=O)C1=C(COCCN)NC(C)=C(C(=O)OC)C1c1ccccc1Cl", "note": "(stereo not drawn) [Sample A1, Amlodipine besylate]", "values": [
      {"measurement": "Total impurity (%): NMT 1.00%", "setting": "[1]", "value": 0.02, "unit": "%"}
    ]},
    {"smiles": "CCOC(=O)C1=C(COCCN)NC(C)=C(C(=O)OC)C1c1ccccc1Cl", "note": "(stereo not drawn) [Table 1, Amlodipine besylate]", "values": [
      {"measurement": "% Potency (Amlodipine besylate)", "setting": "[2]", "value": 100.2, "unit": "%"},
      {"measurement": "Total impurity", "setting": "[2]", "value": 0.02}
    ]}
  ]
}
